This assay concerns Mycolicibacterium smegmatis. Description: Antimycobacterial activity was determined against Mycobacterium smegmatis. It is filed as functional.

For `O=C(O)c1cn(C2CC2)c2cc(N3CCNCC3)c(F)cc2c1=O` [CIPROFLOXACIN], the Log of inhibitory zone stood at 1.28 log mm.

For the origin of these results see ChEMBL document CHEMBL1149238, “A novel mixed-ligand antimycobacterial dimeric copper complex of ciprofloxacin and phenanthroline” (2004).
